Molecular target: Peptidyl-prolyl cis-trans isomerase A (Homo sapiens, UniProt P62937)
Test: Surface Plasmon Resonance Assay
Conditions: pH 7.4; 25 °C
Method: CypA in vitro were determined by employing surface plasmon resonance (SPR) technology.

Peptidyl-prolyl cis-trans isomerase A, sequence (P62937 whole entry): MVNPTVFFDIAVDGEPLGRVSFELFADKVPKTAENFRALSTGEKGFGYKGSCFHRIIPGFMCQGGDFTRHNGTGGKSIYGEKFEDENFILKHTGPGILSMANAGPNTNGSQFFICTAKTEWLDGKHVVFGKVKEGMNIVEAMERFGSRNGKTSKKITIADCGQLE

Row | SMILES | Kd | IC50
1 | CCOC(=O)[C@@H]1CCCN(Cc2cc(-c3ccc4ccccc4c3)nc3ccccc23)C1 [CypA Inhibitor, 1d] | 17.2 µM | 
2 | Cc1noc(NS(=O)(=O)c2ccc(NC(=O)c3ccc4nc(-c5ccco5)c(-c5ccco5)nc4c3)cc2)c1C [CypA Inhibitor, 4b] | 27.3 µM | 
3 | CCOC(=O)[C@H]1CCCN(C(=O)Nc2cc(-c3cccc(Cl)c3)nc3ccccc23)C1 [CypA Inhibitor, 2b] | 28.8 µM | 
4 | O=C(Nc1ccc(S(=O)(=O)Nc2cnc3ccccc3n2)cc1)c1ccc2nc(-c3ccco3)c(-c3ccco3)nc2c1 [CypA Inhibitor, 4g] | 35.3 µM | 0.78 µM
5 | COC(=O)c1cc(NC(=O)c2ccc3nc(-c4ccco4)c(-c4ccco4)nc3c2)ccc1NCc1ccccc1 [CypA Inhibitor, 4a] | 8.19 µM | 0.25 µM
6 | Cc1cc(C)nc(NS(=O)(=O)c2ccc(NC(=O)c3ccc4nc(-c5ccco5)c(-c5ccco5)nc4c3)cc2)n1 [CypA Inhibitor, 4d] | 30.8 µM | 
7 | CC(C)CCOC(=O)Nc1cc(-c2ccc3ccccc3c2)nc2ccccc12 [CypA Inhibitor, 2a] | 0.0762 µM | 
8 | Cc1cc(NS(=O)(=O)c2ccc(NC(=O)c3ccc4nc(-c5ccco5)c(-c5ccco5)nc4c3)cc2)no1 [CypA Inhibitor, 4e] | 38.7 µM | 2.86 µM
9 | CCN(CC)C(=O)CNCc1cc(-c2ccc3ccccc3c2)nc2ccccc12 [CypA Inhibitor, 1e] | 3.41 µM | 
10 | CC(C)(C)NC(=O)[C@@H]1Cc2ccccc2CN1Cc1cc(-c2ccc3ccccc3c2)nc2ccccc12 [CypA Inhibitor, 1b] | 3.07 µM | 
11 | CC(C)(C)NC(=O)[C@@H]1Cc2ccccc2CN1Cc1cc(-c2cccc(Cl)c2)nc2ccccc12 [CypA Inhibitor, 1a] | 24.3 µM | 
12 | c1ccc2cc(-c3cc(CN4CCCCC4)c4ccccc4n3)ccc2c1 [CypA Inhibitor, 1c] | 0.212 µM | 
13 | O=C(Nc1ccc(S(=O)(=O)Nc2ncccn2)cc1)c1ccc2nc(-c3ccco3)c(-c3ccco3)nc2c1 [CypA Inhibitor, 4f] | 22.8 µM | 0.96 µM
14 | Cc1ccnc(NS(=O)(=O)c2ccc(NC(=O)c3ccc4nc(-c5ccco5)c(-c5ccco5)nc4c3)cc2)n1 [CypA Inhibitor, 4c] | 41 µM | 6.43 µM
15 | COC(=O)c1cc(C(=O)Nc2ccc(S(=O)(=O)Nc3onc(C)c3C)cc2)ccc1NCc1ccccc1 [CypA Inhibitor, 3b] | 10.8 µM | 
16 | COC(=O)c1cc(C(=O)Nc2cc(-c3cccc(Cl)c3)nc3ccccc23)ccc1NCc1ccccc1 [CypA Inhibitor, 3a] | 8.18 µM | 
